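How tested: cells in 96-well plates exposed to compound for 48 hours at five concentrations. Here, GI50 denotes the concentration required for 50% inhibition of growth.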 The source made the active and inactive calls. Rule as the data show it: active = GI50 up to about 1.1 µM and inactive = higher.
Columns and labels:
Test in all cases: NCI anticancer screen, dose series, 48 h
SW-620 = test system: SW-620
SF-295 = test system: SF-295
M14 = test system: M14
KM12 = test system: KM12
SF-539 = test system: SF-539
UACC-62 = test system: UACC-62
RXF 393 = test system: RXF 393
ACHN = test system: ACHN
CCRF-CEM = test system: CCRF-CEM
HOP-62 = test system: HOP-62
U-251 = test system: U-251
OVCAR-8 = test system: OVCAR-8
NCI-H522 = test system: NCI-H522
CAKI-1 = test system: CAKI-1
HCT-116 = test system: HCT-116
A498 = test system: A498
SF-268 = test system: SF-268
SK-MEL-2 = test system: SK-MEL-2
HCC 2998 = test system: HCC 2998

Measured: GI50

O=C(CC1(O)C(=O)Nc2c(Cl)cc(Cl)cc21)c1cccc2ccccc12 (configuration not stated)
inactive: SW-620 16 µM | SF-295 15.7 µM | M14 16.7 µM | KM12 16 µM | SF-539 17.1 µM | UACC-62 14.9 µM | RXF 393 20.6 µM | ACHN 17.1 µM | CCRF-CEM 17.8 µM | HOP-62 16.5 µM | U-251 15.5 µM | OVCAR-8 18.1 µM | NCI-H522 14.3 µM | CAKI-1 11.8 µM | HCT-116 15.2 µM | A498 21.5 µM | SF-268 21.4 µM | SK-MEL-2 17.7 µM

Cc1nc2c(o1)/C(=N\c1ccccc1)c1nc(C)oc1/C2=N/c1ccccc1
inactive: SW-620 34.4 µM | SF-295 23.4 µM | M14 36.4 µM | SF-539 14.1 µM | UACC-62 18.8 µM | RXF 393 20.6 µM | ACHN 17.9 µM | CCRF-CEM 61.1 µM | HOP-62 13.1 µM | U-251 17.7 µM | HCC 2998 32.4 µM | OVCAR-8 15.3 µM | NCI-H522 21.7 µM | HCT-116 19.4 µM | A498 1.29 µM | SF-268 23.7 µM | SK-MEL-2 26.8 µM

CCOC(=O)c1ccc(/N=N/c2cc(C(=O)OCC)ccc2O)cc1
inactive: SW-620 > 100 µM | M14 > 100 µM | SF-539 > 100 µM | UACC-62 > 100 µM | RXF 393 > 100 µM | ACHN 84.3 µM | CCRF-CEM > 100 µM | HOP-62 > 100 µM | U-251 > 100 µM | OVCAR-8 > 100 µM | NCI-H522 41.9 µM | CAKI-1 46.6 µM | HCT-116 > 100 µM | A498 68.9 µM | SF-268 > 100 µM

N#Cc1cc([N+](=O)[O-])ccc1NC(=O)C(=O)Nc1n[nH]c(N)n1
inactive: SW-620 > 100 µM | M14 > 100 µM | KM12 > 100 µM | SF-539 > 100 µM | UACC-62 > 100 µM | RXF 393 > 100 µM | ACHN > 100 µM | CCRF-CEM > 100 µM | HOP-62 > 100 µM | U-251 > 100 µM | HCC 2998 > 100 µM | OVCAR-8 > 100 µM | NCI-H522 > 100 µM | CAKI-1 > 100 µM | HCT-116 > 100 µM | A498 > 100 µM | SF-268 > 100 µM | SK-MEL-2 > 100 µM

O=C1c2ccccc2C(=O)c2[nH]cnc21
inactive: SF-295 34.3 µM | M14 41.4 µM | KM12 53.8 µM | SF-539 61.2 µM | UACC-62 31.9 µM | RXF 393 > 100 µM | ACHN 66.7 µM | CCRF-CEM 49.9 µM | HOP-62 > 100 µM | U-251 73.8 µM | HCC 2998 48.4 µM | OVCAR-8 34.7 µM | NCI-H522 34 µM | CAKI-1 > 100 µM | HCT-116 45.4 µM | A498 > 100 µM | SF-268 93.1 µM | SK-MEL-2 > 100 µM

NCCN1C(=O)C2C3c4ccccc4C(c4ccccc43)C2C1=O (configuration not stated)
inactive: SW-620 > 100 µM | SF-295 > 100 µM | M14 > 100 µM | KM12 > 100 µM | SF-539 > 100 µM | UACC-62 > 100 µM | ACHN > 100 µM | CCRF-CEM > 100 µM | HOP-62 > 100 µM | U-251 > 100 µM | HCC 2998 > 100 µM | OVCAR-8 > 100 µM | NCI-H522 > 100 µM | CAKI-1 > 100 µM | HCT-116 > 100 µM | A498 > 100 µM | SF-268 > 100 µM | SK-MEL-2 > 100 µM

Cc1cc(-c2ccccc2)nc(Nc2nc3ccccc3o2)n1
inactive: SW-620 > 100 µM | SF-295 > 100 µM | M14 > 100 µM | KM12 > 100 µM | SF-539 > 100 µM | UACC-62 > 100 µM | ACHN > 100 µM | CCRF-CEM 74 µM | HOP-62 > 100 µM | U-251 > 100 µM | HCC 2998 > 100 µM | OVCAR-8 > 100 µM | NCI-H522 > 100 µM | CAKI-1 > 100 µM | HCT-116 > 100 µM | A498 > 100 µM | SF-268 > 100 µM | SK-MEL-2 > 100 µM

Nc1ccccc1C(=O)/C=C/c1ccccc1O
inactive: SW-620 35.4 µM | SF-295 > 100 µM | M14 32.3 µM | KM12 31 µM | SF-539 78.7 µM | UACC-62 57.1 µM | RXF 393 61.1 µM | CCRF-CEM 33.9 µM | HOP-62 > 100 µM | U-251 95.9 µM | HCC 2998 32.3 µM | OVCAR-8 50.8 µM | NCI-H522 34.5 µM | CAKI-1 25.6 µM | HCT-116 38.2 µM | A498 > 100 µM | SF-268 56.5 µM | SK-MEL-2 28.3 µM

COc1ccc(/N=C(/[N-]n2c(=O)c(C)nn(C)c2=S)N(c2ccc(OC)cc2)c2n[n+]3c(=O)c(C)nn(C)c3s2)cc1
inactive: SW-620 > 100 µM | SF-295 > 100 µM | M14 > 100 µM | KM12 > 100 µM | SF-539 > 100 µM | UACC-62 > 100 µM | RXF 393 > 100 µM | ACHN > 100 µM | CCRF-CEM > 100 µM | HOP-62 > 100 µM | U-251 > 100 µM | OVCAR-8 > 100 µM | NCI-H522 > 100 µM | HCT-116 > 100 µM | A498 93.3 µM | SF-268 > 100 µM

CC(=O)OCCOCNC(=S)N/N=C/c1ccc(Br)s1
inactive: SW-620 > 100 µM | SF-295 > 76 µM | M14 > 100 µM | KM12 > 100 µM | SF-539 > 100 µM | UACC-62 > 100 µM | RXF 393 > 100 µM | ACHN > 100 µM | CCRF-CEM 3.74 µM | HOP-62 > 100 µM | U-251 > 95.3 µM | HCC 2998 > 100 µM | OVCAR-8 > 100 µM | NCI-H522 8.17 µM | HCT-116 55 µM | A498 > 100 µM | SF-268 > 100 µM | SK-MEL-2 > 100 µM

CCCCCCCCCCCCCCCCOP(=O)(O)Oc1ccc(/C=C\c2ccc(OP(=O)(O)OCCCCCCCCCCCCCCCC)cc2)cc1
inactive: SW-620 > 100 µM | SF-295 29.6 µM | M14 45.6 µM | KM12 56.2 µM | UACC-62 > 100 µM | RXF 393 2.47 µM | ACHN 40.6 µM | CCRF-CEM 29 µM | HOP-62 38.1 µM | U-251 34 µM | HCC 2998 > 100 µM | OVCAR-8 12.2 µM | NCI-H522 29.6 µM | CAKI-1 > 100 µM | HCT-116 54 µM | A498 83.9 µM | SF-268 34.9 µM | SK-MEL-2 > 100 µM

From ChEMBL document CHEMBL1201862, “PubChem BioAssay data set” (2004)
